pIC50: −log10 of the molar value. Counter-ions that a name gives are not always drawn.
System: Endogenous Huntingtin Protein (HTT)
Assay: Endogenous Huntingtin Protein Assay (ELISA-based MSD electrochemiluminescence)
Format: cell-based
Conditions: Table 1
Procedure, shortened: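 MSD electrochemiluminescence sandwich ELISA for endogenous HTT: sample lysates captured overnight at 4 °C on MW1 (expanded polyglutamine) or MAB2166 antibody. Detection used rabbit monoclonal #5656S, then goat anti-rabbit SULFO-TAG antibody, each 1 h at room temperature.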

Row | pIC50 | SMILES
1 | 4.48 to 5.52 | Cc1cn2nc(-c3cc(=O)n4cc(N5CCC(C)(NCCO)CC5)ccc4n3)cc2c(C)n1 [compound 709, 2-(4,6-dimethylpyrazolo[1,5-a]pyrazin-2-yl)-7-{4-[(2-hydroxyethyl)amino]-4-methylpiperidin-1-yl}-4H-pyrido[1,2-a]pyrimidin-4-one]
2 | 4.48 to 5.52 | Cc1cc(-c2cc(=O)n3cc(N4CCN(C)CC4)ccc3n2)cc2cnn(C)c12 [compound 846, 2-(1,7-dimethyl-1H-indazol-5-yl)-7-(4-methylpiperazin-1-yl)-4H-pyrido[1,2-a]pyrimidin-4-one]
3 | 4.48 to 5.52 | Cc1cn2nc(-c3cc(=O)n4cc(N5CCNCC5)cc(C)c4n3)cc2c(C)n1 [compound 720, 2-(4,6-dimethylpyrazolo[1,5-a]pyrazin-2-yl)-9-methyl-7-(piperazin-1-yl)-4H-pyrido[1,2-a]pyrimidin-4-one]
4 | 4.48 to 5.52 | O=c1cc(-c2ccn3ccnc3c2)nc2ccc(N3CCNCC3)cn12 [compound 107, 2-(imidazo[1,2-a]pyridin-7-yl)-7-(piperazin-1-yl)-4H-pyrido[1,2-a]pyrimidin-4-one]
5 | 6.30 to 7.00 | CCN1CCC(c2cn3c(=O)cc(-c4ccc5nc(C)cn5n4)nc3c(C)n2)CC1 [compound 873, 7-(1-ethylpiperidin-4-yl)-9-methyl-2-(2-methylimidazo[1,2-b]pyridazin-6-yl)-4H-pyrazino[1,2-a]pyrimidin-4-one]
6 | 4.48 to 5.52 | Cc1cn2nc(-c3cc(=O)n4cc(N5C[C@@H](C)N(C)[C@@H](C)C5)ccc4n3)cc2c(C)n1 [compound 259, 2-(4,6-dimethylpyrazolo[1,5-a]pyrazin-2-yl)-7-[(3R,5S)-3,4,5-trimethylpiperazin-1-yl]-4H-pyrido[1,2-a]pyrimidin-4-one]
7 | 4.48 to 5.52 | Cc1cn(-c2cc(=O)n3cc(N4CCNCC4)ccc3n2)cn1 [compound 179, 2-(4-methyl-1H-imidazol-1-yl)-7-(piperazin-1-yl)-4H-pyrido[1,2-a]pyrimidin-4-one]
8 | 4.48 to 5.52 | Cc1cn2cc(-c3cc(=O)n4cc(N5CCN(C6CC6)CC5)ccc4n3)cc(F)c2n1 [compound 412, 7-(4-cyclopropylpiperazin-1-yl)-2-(8-fluoro-2-methylimidazo[1,2-a]pyridin-6-yl)-4H-pyrido[1,2-a]pyrimidin-4-one]
9 | 4.48 to 5.52 | CCc1nc(C)cn2nc(-c3cc(=O)n4cc(N5CCCN(C)CC5)ccc4n3)cc12 [compound 636, 2-(4-ethyl-6-methylpyrazolo[1,5-a]pyrazin-2-yl)-7-(4-methyl-1,4-diazepan-1-yl)-4H-pyrido[1,2-a]pyrimidin-4-one]
10 | 4.48 to 5.52 | CCc1cc(-c2cc(=O)n3cc(N4CCN[C@@H](C)C4)ccc3n2)cn2cc(C)nc12 [compound 639, 2-(8-ethyl-2-methylimidazo[1,2-a]pyridin-6-yl)-7-[(3S)-3-methylpiperazin-1-yl]-4H-pyrido[1,2-a]pyrimidin-4-one]
11 | 4.48 to 5.52 | CN1CCC(c2cn3c(=O)cc(-c4ccc5nn(C)cc5c4)nc3cn2)CC1 [compound 567, 2-(2-methyl-2H-indazol-5-yl)-7-(1-methylpiperidin-4-yl)-4H-pyrazino[1,2-a]pyrimidin-4-one]
12 | 4.48 to 5.52 | CN1CCC(c2ccc3nc(-c4ccc5nn(C)cc5c4)cc(=O)n3c2)CC1 [compound 578, 2-(2-methyl-2H-indazol-5-yl)-7-(1-methylpiperidin-4-yl)-4H-pyrido[1,2-a]pyrimidin-4-one]

The next lines start with the compound.

Row | SMILES | pIC50
13 | Cc1cn2nc(-c3cc(=O)n4cc(C5=CCNCC5)cc(C)c4n3)cc2c(C)n1 [compound 480, 2-(4,6-dimethylpyrazolo[1,5-a]pyrazin-2-yl)-9-methyl-7-(1,2,3,6-tetrahydropyridin-4-yl)-4H-pyrido[1,2-a]pyrimidin-4-one] | 6.30 to 7.00
14 | Cc1cn2nc(-c3cc(=O)n4cc(N5CCC(C)(N)CC5)ccc4n3)cc2c(C)n1 [compound 584, 7-(4-amino-4-methylpiperidin-1-yl)-2-(4,6-dimethylpyrazolo[1,5-a]pyrazin-2-yl)-4H-pyrido[1,2-a]pyrimidin-4-one] | 4.48 to 5.52
15 | CCc1nc(C)cn2nc(-c3cc(=O)n4cc(N5CCN(CCCF)[C@H](C)C5)ccc4n3)cc12 [compound 667, 2-(4-ethyl-6-methylpyrazolo[1,5-a]pyrazin-2-yl)-7-[(3R)-4-(3-fluoropropyl)-3-methylpiperazin-1-yl]-4H-pyrido[1,2-a]pyrimidin-4-one] | 5.52 to 6.00
16 | Cc1cc(-c2cc(=O)n3cc(C4=CCNCC4)ccc3n2)nc2cn(C)nc12 [compound 863, 2-(2,7-dimethyl-2H-pyrazolo[4,3-b]pyridin-5-yl)-7-(1,2,3,6-tetrahydropyridin-4-yl)-4H-pyrido[1,2-a]pyrimidin-4-one hydrochloride (1:2)] | 5.52 to 6.00
17 | Cc1cc(-c2cc(=O)n3cc(N4CCNCC4)ccc3n2)cc2cnn(C)c12 [compound 776, 2-(1,7-dimethyl-1H-indazol-5-yl)-7-(piperazin-1-yl)-4H-pyrido[1,2-a]pyrimidin-4-one] | 4.48 to 5.52
18 | C[C@H]1CN(c2ccc3nc(-c4cnn(C)c4)cc(=O)n3c2)CCN1 [compound 191, 7-[(3S)-3-methylpiperazin-1-yl]-2-(1-methyl-1H-pyrazol-4-yl)-4H-pyrido[1,2-a]pyrimidin-4-one] | 4.48 to 5.52
19 | Cc1cn2nc(-c3cc(=O)n4cc(N5C[C@@H](C)N[C@@H](C)C5)ccc4n3)cc2cn1 [compound 442, 7-[(3R,5S)-3,5-dimethylpiperazin-1-yl]-2-(6-methylpyrazolo[1,5-a]pyrazin-2-yl)-4H-pyrido[1,2-a]pyrimidin-4-one] | 4.48 to 5.52
20 | O=c1cc(-c2ccc(-c3ccnc(O)c3)cc2O)nc2ccc(C3=CCNCC3)cn12 [compound 850, 2-[2-hydroxy-4-(2-hydroxypyridin-4-yl)phenyl]-7-(1,2,3,6-tetrahydropyridin-4-yl)-4H-pyrido[1,2-a]pyrimidin-4-one trifluoroacetate (1:1)] | 4.48 to 5.52
21 | C[C@@H]1CN(c2ccc3nc(-c4ccc5c(cnn5C)c4)cc(=O)n3c2)C[C@H](C)N1 [compound 552, 7-[(3R,5S)-3,5-dimethylpiperazin-1-yl]-2-(1-methyl-1H-indazol-5-yl)-4H-pyrido[1,2-a]pyrimidin-4-one] | 4.48 to 5.52
22 | Cc1cn2nc(-c3cc(=O)n4cc(C5CCNCC5)ncc4n3)cc2c(C)n1 [compound 502, 2-(4,6-dimethylpyrazolo[1,5-a]pyrazin-2-yl)-7-(piperidin-4-yl)-4H-pyrazino[1,2-a]pyrimidin-4-one] | > 7.00
23 | CCCc1nc(C)cn2nc(-c3cc(=O)n4cc(C5CCNCC5)ccc4n3)cc12 [compound 766, 2-(6-methyl-4-propylpyrazolo[1,5-a]pyrazin-2-yl)-7-(piperidin-4-yl)-4H-pyrido[1,2-a]pyrimidin-4-one] | 6.00 to 6.30
24 | Cc1cc(C2CCN(C3CCC3)CC2)cn2c(=O)cc(-c3ccc4nn(C)cc4c3)nc12 [compound 710, 7-(1-cyclobutylpiperidin-4-yl)-9-methyl-2-(2-methyl-2H-indazol-5-yl)-4H-pyrido[1,2-a]pyrimidin-4-one] | 6.30 to 7.00
25 | Cc1cn2nc(-c3cc(=O)n4cc(C5CCN(CCO)CC5)ccc4n3)cc2c(C)n1 [compound 530, 2-(4,6-dimethylpyrazolo[1,5-a]pyrazin-2-yl)-7-[1-(2-hydroxyethyl)piperidin-4-yl]-4H-pyrido[1,2-a]pyrimidin-4-one] | 4.48 to 5.52
26 | Cc1cc(-c2cc(=O)n3cc(N4CCN(C)[C@@H](C)C4)ccc3n2)cc2cn(C)nc12 [compound 751, 2-(2,7-dimethyl-2H-indazol-5-yl)-7-[(3S)-3,4-dimethylpiperazin-1-yl]-4H-pyrido[1,2-a]pyrimidin-4-one] | 4.48 to 5.52
27 | Cc1ccc2nc(-c3cc(=O)n4cc(N5CCNCC5)ccc4n3)cn2c1 [compound 29, 2-(6-methylimidazo[1,2-a]pyridin-2-yl)-7-(piperazin-1-yl)-4H-pyrido[1,2-a]pyrimidin-4-one] | 4.48 to 5.52
28 | Cc1cn2nc(-c3cc(=O)n4cc(N5CCN(C)[C@@H](C)C5)ccc4n3)cc2c(C)n1 [compound 258, 7-[(3S)-3,4-dimethylpiperazin-1-yl]-2-(4,6-dimethylpyrazolo[1,5-a]pyrazin-2-yl)-4H-pyrido[1,2-a]pyrimidin-4-one] | 4.48 to 5.52
29 | CCN1CC=C(c2cc(C)c3nc(-c4cc5c(C)nc(C)cn5n4)cc(=O)n3c2)CC1 [compound 482, 2-(4,6-dimethylpyrazolo[1,5-a]pyrazin-2-yl)-7-(1-ethyl-1,2,3,6-tetrahydropyridin-4-yl)-9-methyl-4H-pyrido[1,2-a]pyrimidin-4-one] | 4.48 to 5.52
30 | O=c1cc(-c2ccc(OC(F)F)c(F)c2)nc2ccc(N3CCNCC3)cn12 [compound 838, 2-[4-(difluoromethoxy)-3-fluorophenyl]-7-(piperazin-1-yl)-4H-pyrido[1,2-a]pyrimidin-4-one] | 4.48 to 5.52
31 | CCc1nc(C)cn2nc(-c3cc(=O)n4cc(C5CCN(C)CC5)cc(C)c4n3)cc12 [compound 774, 2-(4-ethyl-6-methylpyrazolo[1,5-a]pyrazin-2-yl)-9-methyl-7-(1-methylpiperidin-4-yl)-4H-pyrido[1,2-a]pyrimidin-4-one] | 4.48 to 5.52
32 | CCN1C[C@@H]2C[C@H]1CN2c1ccc2nc(-c3cc4c(C)nc(C)cn4n3)cc(=O)n2c1 [compound 401, 2-(4,6-dimethylpyrazolo[1,5-a]pyrazin-2-yl)-7-[(1S,4S)-5-ethyl-2,5-diazabicyclo[2.2.1]hept-2-yl]-4H-pyrido[1,2-a]pyrimidin-4-one] | 4.48 to 5.52
33 | CCc1nc(C)cn2nc(-c3cc(=O)n4cc(N5CCN(CCO)CC5)ccc4n3)cc12 [compound 549, 2-(4-ethyl-6-methylpyrazolo[1,5-a]pyrazin-2-yl)-7-[4-(2-hydroxyethyl)piperazin-1-yl]-4H-pyrido[1,2-a]pyrimidin-4-one] | 4.48 to 5.52
34 | COc1ccc(-c2cc(=O)n3cc(N4CCNCC4)ccc3n2)cn1 [compound 88, 2-(6-methoxypyridin-3-yl)-7-(piperazin-1-yl)-4H-pyrido[1,2-a]pyrimidin-4-one] | 4.48 to 5.52
35 | Cc1cc(N2CCN[C@H](C)C2)cn2c(=O)cc(-c3ccc4nn(C)cc4c3)nc12 [compound 755, 9-methyl-2-(2-methyl-2H-indazol-5-yl)-7-[(3R)-3-methylpiperazin-1-yl]-4H-pyrido[1,2-a]pyrimidin-4-one] | 5.52 to 6.00

From patent publication US11382918B2, “Methods for treating Huntington's Disease” (PTC Therapeutics, Inc., priority 2017, dated 2022)
